Laboratory results published in ChEMBL document CHEMBL5528028, “Discovery of benzopyridone cyanoacetates as new type of potential broad-spectrum antibacterial candidates” (Eur J Med Chem, 2024).
Calls of active or inactive are those of the source. The calls are words filed in the database; no cut-off is given here.

Key:
[1] = Half life in mouse at 10 mg/kg, iv; type: ADME, organism-based; conditions: in vivo
[2] = Initial plasma concentration in mouse at 10 mg/kg, iv; type: ADME, organism-based; conditions: in vivo
Acinetobacter baumannii = experiment: Antibacterial activity against Acinetobacter baumannii assessed growth inhibition by micro broth dilution method; type: functional
Klebsiella pneumoniae [3] = experiment: Anti-biofilm activity against Klebsiella pneumonia assessed as relative biofilm clearance rate at 8 times of MIC by crystal violet staining based assay; type: functional
[4] = MRT (0 to infinity) in mouse at 10 mg/kg, po; type: ADME, organism-based; conditions: in vivo
Enterococcus faecalis = experiment: Antibacterial activity against Enterococcus faecalis assessed growth inhibition by micro broth dilution method; type: functional
[5] = MRT (0 to infinity) in mouse at 10 mg/kg, iv; type: ADME, organism-based; conditions: in vivo
Klebsiella pneumoniae [6] = experiment: Antibacterial activity against Klebsiella pneumonia assessed growth inhibition by micro broth dilution method; type: functional
[7] = Apparent volume of distribution in mouse at 10 mg/kg, po; type: ADME, organism-based; conditions: in vivo
[8] = Clearance in mouse at 10 mg/kg, po; type: ADME, organism-based; conditions: in vivo
[9] = Volume of distribution at steady state in mouse at 10 mg/kg, iv; type: ADME, organism-based; conditions: in vivo
[10] = Oral bioavailability in mouse at 10 mg/kg; type: ADME, organism-based; conditions: in vivo
[11] = MRT (0 to t) in mouse at 10 mg/kg, iv; type: ADME, organism-based; conditions: in vivo
Erythrocyte = experiment: Hemolytic activity in human RBC incubated measured upto 128 ug/ml; type: toxicity, cell-based; conditions: dose < 128 µg/ml
[12] = AUMC (0 to infinity) in mouse at 10 mg/kg, iv; type: ADME, organism-based; conditions: in vivo
Pseudomonas aeruginosa [13] = experiment: Antibacterial activity against Pseudomonas aeruginosa assessed growth inhibition by micro broth dilution method; type: functional
Klebsiella pneumoniae [14] = experiment: In vivo anti-infective effect against Klebsiella pneumonia p1-6305014 infected in mouse model assessed as reduction bacterial growth at 15 mg/kg; type: functional
[15] = Tmax in mouse at 10 mg/kg, iv; type: ADME, organism-based; conditions: in vivo
[16] = Cmax in mouse at 10 mg/kg, iv; type: ADME, organism-based; conditions: in vivo
[17] = AUC (0 to t) in mouse at 10 mg/kg, po; type: ADME, organism-based; conditions: in vivo
[18] = MRT (0 to t) in mouse at 10 mg/kg, po; type: ADME, organism-based; conditions: in vivo
[19] = Cytotoxicity against human NOK cells assessed as cell viability at 8 ug/ml; type: toxicity, cell-based; conditions: nok-si, dose 8 µg/ml
[20] = AUMC (0 to t) in mouse at 10 mg/kg, iv; type: ADME, organism-based; conditions: in vivo
Staphylococcus aureus [21] = experiment: Anti-biofilm activity against Staphylococcus aureus ATCC 29213 assessed as relative biofilm clearance rate at 8 times of MIC by crystal violet staining based assay; type: functional
Staphylococcus aureus [22] = experiment: Antibacterial activity against Staphylococcus aureus ATCC 25923 assessed growth inhibition by micro broth dilution method; type: functional
[23] = Cmax in mouse at 10 mg/kg, po; type: ADME, organism-based; conditions: in vivo
[24] = Half life in mouse at 10 mg/kg, po; type: ADME, organism-based; conditions: in vivo
[25] = Cytotoxicity against human FHC cells assessed as cell viability at 8 ug/ml; type: toxicity, cell-based; conditions: at 8 µg/mL, read-out: Activity
Staphylococcus aureus [26] = experiment: Antibacterial activity against Staphylococcus aureus assessed growth inhibition by micro broth dilution method; type: functional
[27] = Tmax in mouse at 10 mg/kg, po; type: ADME, organism-based; conditions: in vivo
[28] = Thermodynamic solubility of the compound in water; type: physicochemical; conditions: read-out: Therm_solubility
[29] = Clearance in mouse at 10 mg/kg, iv; type: ADME, organism-based; conditions: in vivo
[30] = AUC (0 to infinity) in mouse at 10 mg/kg, iv; type: ADME, organism-based; conditions: in vivo
[31] = AUMC (0 to infinity) in mouse at 10 mg/kg, po; type: ADME, organism-based; conditions: in vivo
[32] = AUC (0 to infinity) in mouse at 10 mg/kg, po; type: ADME, organism-based; conditions: in vivo
Staphylococcus aureus [33] = experiment: Antibacterial activity against Staphylococcus aureus ATCC 29213 assessed growth inhibition by micro broth dilution method; type: functional
Staphylococcus aureus [34] = experiment: Antibacterial activity against methicillin-resistant Staphylococcus aureus assessed growth inhibition by micro broth dilution method; type: functional
Pseudomonas aeruginosa [35] = experiment: Antibacterial activity against Pseudomonas aeruginosa ATCC 27853 assessed growth inhibition by micro broth dilution method; type: functional
[36] = AUMC (0 to t) in mouse at 10 mg/kg, po; type: ADME, organism-based; conditions: in vivo
Klebsiella pneumoniae [37] = experiment: In vivo anti-infective effect against Klebsiella pneumonia p1-6305014 infected in mouse model assessed as reduction bacterial growth at 5 mg/kg; type: functional
Escherichia coli [38] = experiment: Antibacterial activity against Escherichia coli assessed growth inhibition by micro broth dilution method; type: functional
[39] = AUC (0 to t) in mouse at 10 mg/kg, iv; type: ADME, organism-based; conditions: in vivo
Escherichia coli [40] = experiment: Antibacterial activity against Escherichia coli ATCC 25922 assessed growth inhibition by micro broth dilution method; type: functional
Klebsiella pneumoniae [41] = experiment: Anti-biofilm activity against Klebsiella pneumonia assessed as relative biofilm clearance rate by crystal violet staining based assay; type: functional, organism-based
Cell membrane [42] = experiment: Induction of inner membrane permeability in Staphylococcus aureus ATCC 29213 assessed as increase in fluorescence intensity by propidium iodide uptake based microscopic imaging assay; type: cell membranes
Staphylococcus aureus [43] = experiment: Induction of ROS generation in Staphylococcus aureus ATCC 29213 assessed as increase in fluorescence intensity by DCFH-DA based microscopic analysis; type: functional, organism-based
Cell membrane [44] = experiment: Induction of disruption of membrane integrity in Klebsiella pneumonia assessed as leakage of intracellular proteins by Acid Blue 90 based assay; type: cell membranes; conditions: Klebsiella pneumoniae
Cell membrane [45] = experiment: Induction of cytoplasmic membrane depolarization in Klebsiella pneumonia assessed as increase in fluorescence intensity at 2 times of MIC measured upto 40 mins by DiSC35 dye based fluorescence method; type: cell membranes; conditions: Klebsiella pneumoniae, DISRUPTING AGENT
Staphylococcus aureus [46] = experiment: Induction of resistance development in Staphylococcus aureus ATCC 29213 assessed as after 20 passages measured upto 4.5 times of MIC; type: functional
Klebsiella pneumoniae [47] = experiment: Induction of ROS generation in Klebsiella pneumonia assessed as increase in fluorescence intensity by DCFH-DA based microscopic analysis; type: functional, organism-based
Klebsiella pneumoniae [48] = experiment: Induction of ROS generation in Klebsiella pneumonia assessed as loss of GSH activity by Ellmans method; type: functional, organism-based
Staphylococcus aureus [49] = experiment: Anti-biofilm activity against Staphylococcus aureus ATCC 29213 assessed as relative biofilm clearance rate by crystal violet staining based assay; type: functional, organism-based
Staphylococcus aureus [50] = experiment: Bactericidal activity against Staphylococcus aureus ATCC 29213 assessed as time dependent killing at 4 times of MIC measured at 8 hrs; type: functional, organism-based
Calf thymus DNA [51] = experiment: Binding affinity to calf thymus DNA assessed as change in absorption measuring hyperchromism by UV-Vis absorption spectra analysis; type: nucleic-acid assay; conditions: Bos taurus
Cell membrane [52] = experiment: Induction of outer membrane permeability in Klebsiella pneumonia assessed as increase in fluorescence intensity at 2 times of MIC by N-phenyl naphthylamine (NPN) dye based assay; type: cell membranes; conditions: Klebsiella pneumoniae
Staphylococcus aureus [53] = experiment: Antibacterial activity against Staphylococcus aureus ATCC 29213 assessed as decrease in relative metabolic activity at 4 times of MIC by Alamar Blue assays; type: functional, organism-based
Klebsiella pneumoniae [54] = experiment: Antibacterial activity against Klebsiella pneumonia assessed as decrease in relative metabolic activity at 4 times of MIC by Alamar Blue assays; type: functional, organism-based
Cell membrane [55] = experiment: Induction of disruption of membrane integrity in Staphylococcus aureus ATCC 29213 assessed as leakage of intracellular proteins by Acid Blue 90 based assay; type: cell membranes
Klebsiella pneumoniae [56] = experiment: Induction of resistance development in Klebsiella pneumonia assessed as after 20 passages measured upto 4.5 times of MIC; type: functional
Klebsiella pneumoniae [57] = experiment: Bactericidal activity against Klebsiella pneumonia assessed as time dependent killing at 4 times of MIC measured at 8 hrs; type: functional, organism-based
Cell membrane [58] = experiment: Induction of cytoplasmic membrane depolarization in Staphylococcus aureus ATCC 29213 assessed as increase in fluorescence intensity at 2 times of MIC measured upto 40 mins by DiSC35 dye based fluorescence method; type: cell membranes
Calf thymus DNA [59] = experiment: Induction of calf thymus DNA double helix loss assessed as reduction in fluorescence intensity at 525 nm wavelength by acridine orange competition based assay; type: nucleic-acid assay; conditions: Bos taurus
Cell membrane [60] = experiment: Induction of inner membrane permeability in Klebsiella pneumonia assessed as increase in fluorescence intensity by propidium iodide uptake based microscopic imaging assay; type: cell membranes; conditions: Klebsiella pneumoniae
Staphylococcus aureus [61] = experiment: Induction of ROS generation in Staphylococcus aureus ATCC 29213 assessed as loss of GSH activity by Ellmans method; type: functional, organism-based

Molecule `CCCCCCCCn1cc(C(=O)OCC)c(=O)c2cc(F)c([C-](C#N)C(=O)OCC)cc21.[Na+]` (centres undefined) has a half-life [1] of 12 min, a C0 [2] of 1046 ng/mL and an MIC (Acinetobacter baumannii) of 0.25 µg/mL. For the same molecule, the Activity (Klebsiella pneumoniae [3]) was 70%, the MRT [4] was 250 min and the MIC (Enterococcus faecalis) was 4 µg/mL. For the same molecule, the MRT inf [5] was 10.2 min, the MIC (Klebsiella pneumoniae [6]) was 0.25 µg/mL and the Vz [7] was 133.561 L/kg. For the same molecule, the CL/F [8] was 698 mL/min/kg, the Vdss [9] was 1.976 L/kg and the F [10] was 26.6%. The MRT last [11] was 9 min, the Activity (Erythrocyte) was “Non-Toxic” and the AUMC [12] was 15 hr.hr.ng/ml. For the same molecule, the MIC (Pseudomonas aeruginosa [13]) was 0.5 µg/mL, the Activity (Klebsiella pneumoniae [14]) was 4 log10CFU and the Tmax [15] was 1.98 min. For the same molecule, the Cmax [16] was 549 ng/mL, the AUC(0-t) [17] was 196 ng·h/mL and the MRT last [18] was 161 min. The Activity [19] was “Non-Toxic”, the AUMCt [20] was 13.3 hr.hr.ng/ml and the Activity (Staphylococcus aureus [21]) was 70%. It also gave an MIC (Staphylococcus aureus [22]) of 0.25 µg/mL, a Cmax [23] of 89 ng/mL and a half-life [24] of 133 min. For the same molecule, the viability at 8 ug/ml [25] was 70%, the MIC (Staphylococcus aureus [26]) was 16 µg/mL and the Tmax [27] was 30 min. It also gave a solubility thermodynamic [28] of 27.5 µg/mL, a CL [29] of 191.07 mL/min/kg and an AUC [30] of 90.6 ng·h/mL. The AUMC [31] was 1035 hr.hr.ng/ml, the AUC [32] was 241 ng·h/mL and the MIC (Staphylococcus aureus [33]) was 0.25 µg/mL. The MIC (Staphylococcus aureus [34]) was 8 µg/mL, the MIC (Pseudomonas aeruginosa [35]) was 0.5 µg/mL and the AUMCt [36] was 523 hr.hr.ng/ml. For the same molecule, the Activity (Klebsiella pneumoniae [37]) was 1.5 log10CFU, the MIC (Escherichia coli [38]) was 0.25 µg/mL and the AUC(0-t) [39] was 89.3 ng·h/mL. For the same molecule, the MIC (Escherichia coli [40]) was 0.25 µg/mL.
In the case of `CCOC(=O)c1cn(Cc2ccc(Cl)c(Cl)c2)c2cc(C(C#N)C(=O)OCC)c(F)cc2c1=O` (centres undefined), the Activity (Klebsiella pneumoniae [41]) is reported as “Dose-Dependent Effect”, the Activity (Cell membrane [42]) is reported as “Dose-Dependent Effect” and the Activity (Staphylococcus aureus [43]) is reported as “Dose-Dependent Effect”. For the same molecule, the Activity (Cell membrane [44]) was “Dose-Dependent Effect”, the Activity (Cell membrane [45]) was “Active” and the Activity (Staphylococcus aureus [46]) was “Active”. The Activity (Klebsiella pneumoniae [47]) was “Dose-Dependent Effect”, the Activity (Klebsiella pneumoniae [48]) was “Dose-Dependent Effect” and the Activity (Staphylococcus aureus [49]) was “Dose-Dependent Effect”. For the same molecule, the Activity (Staphylococcus aureus [50]) was “Active”, the Activity (Calf thymus DNA [51]) was “Active” and the Activity (Cell membrane [52]) was “Dose-Dependent Effect”. The Activity (Staphylococcus aureus [53]) was “Active”, the Activity (Klebsiella pneumoniae [54]) was “Active” and the Activity (Cell membrane [55]) was “Dose-Dependent Effect”. The Activity (Klebsiella pneumoniae [56]) was “Active”, the Activity (Klebsiella pneumoniae [57]) was “Active” and the Activity (Cell membrane [58]) was “Active”. For the same molecule, the Activity (Calf thymus DNA [59]) was “Active”, the Activity (Cell membrane [60]) was “Dose-Dependent Effect” and the Activity (Staphylococcus aureus [61]) was “Dose-Dependent Effect”.
